Data set [1] can be described thus: Sedative action: Irwin Test (passivity, ataxia). The note with it: for Atax. (ataxia, alterations of coordination in locomotion), evaluated between 0 and 3 / Pas. (passivity, sedation, prostation), evaluation between 0 and 3 / Effect: toxic: rat, i.p.; for Atax. (ataxia, alterations of coordination in locomotion), evaluated between 0 and 3 / Pas. (passivity, sedation, prostation), evaluation between 0 and 3: 1, 2 and 3 hours after treatment.
Description: Pas.: Passivity, sedation, prostation. Quantitative evaluation between 0 and 3. They were performed 1, 2 and 3 hours after the treatment.
Atax.: Ataxia, the alterations of coordination in locomotion were evaluated. They were evaluated between 0 and 3. They were performed 1, 2 and 3 hours after the treatment.
Sedative action: 1) Irwin Test

Data set [2] relates to death induced by 48/80. The data set is described as follows: "In vivo" antihistaminic activity: protection from death induced by compound 48/80 in the rat. The note with it: for ED50: ip, 4 h, i.p., rat, 48/80 0.5 mg/kg i.v. after 60 minutes, survival four hours after injection, read-out: ED-50 (dose capable of protecting 50% of the animals from death induced by 48/80). The method, then: The antihistaminic activity was studied by determining the protection in the face of the mortality used by the product 48/80 in the rat. This test was performed in accordance with the technique described by C. J. E. Niemegeers et cols. (Arch. int. Pharmacodyn., 234, 164-176 (1978). The products according to the present invention are administered intra-peritonially to rats. After 60 minutes the compound 48/80 is administered (0.5 mg/kg, i.v.).
The protective activity is defined as the survival of the rats four hours after the i.v. injection of 48/80.
The activity of the products was studied at several doses in order to determine the dose capable of protecting 50% of the animals (ED-50).
"In vivo" antihistaminic activity Protection from death induced by 48/80

A short description of data set [3]: Sedative effect: potentiation of the sleep time induced by pentobarbital. As to conditions: for Potentiation of the sleep time induced by pentobarbital (in words): oral, example 5 up to 160 mg/kg, difenhidramine at 20 mg/kg; for Potentiation sleep time: sodium pentobarbital 35 mg/kg s.c. one hour later.
Description: The study of the potentiation of the sleep time due to the pentobarbital was performed following the method described by L. E. Allen and cols. […] The products studied were administered orally. […] The sleep time was compared with a group of control animals, treated only with sodium pentobarbital.

`CN(C)CCOC(c1ccccc1)c1ccccc1` [Difenhidramine, reference compound]: in data set [1] (40 mg/kg), the “Atax. (ataxia, alterations of coordination in locomotion), evaluated between 0 and 3” value worked out at 0.9; the “Pas. (passivity, sedation, prostation), evaluation between 0 and 3” value (“Pas. (passivity, sedation, prostation)” below) was 0. For the same compound, in data set [2], the ED50 worked out at 5.4 mg/kg. Moreover, the “Potentiation of the sleep time induced by pentobarbital (in words)” value in data set [3] is “potentiates significantly the sleep time at the dose of 20 mg/kg”.

As for `Brc1cnn(CCCCN2CCN(C(c3ccccc3)c3ccccc3)CC2)c1` [Example 1, 4-Bromo-1-[4-(4-diphenylmethyl-1-piperazinyl)butyl]pyrazole], in data set [1] (20 mg/kg), the “Atax. (ataxia, alterations of coordination in locomotion), evaluated between 0 and 3” value worked out at 1.2; the “Pas. (passivity, sedation, prostation)” value is recorded as 0.8. In data set [1] (40 mg/kg), the “Atax. (ataxia, alterations of coordination in locomotion), evaluated between 0 and 3” value came to 1.4; the “Pas. (passivity, sedation, prostation)” value was 0.8. Also, the “Effect: toxic” value in data set [1] (80 mg/kg) was “Toxic”. For the same compound, the ED50 in data set [2] came out at 3.2 mg/kg.

As to `Clc1cnn(CCCCN2CCN(C(c3ccccc3)c3ccccc3)CC2)c1` [Example 2, 4-Chloro-1-[4-(-4-diphenylmethyl-1-piperazinyl)butyl]pyrazole], in data set [1] (40 mg/kg), the “Atax. (ataxia, alterations of coordination in locomotion), evaluated between 0 and 3” value is 1.5; the “Pas. (passivity, sedation, prostation)” value was 0.2. Also, in data set [1] (80 mg/kg), the “Effect: toxic” value is on record as “Tox”; the “Atax. (ataxia, alterations of coordination in locomotion), evaluated between 0 and 3” value came out at 0.4; the “Pas. (passivity, sedation, prostation)” value is on record as 0. The ED50 in data set [2] is 3 mg/kg.

As for `Brc1cnn(CCCN2CCN(C(c3ccccc3)c3ccccc3)CC2)c1` [Example 3, 4-Bromo-1-[3-(4-diphenylmethyl-1-piperazinyl)propyl]pyrazole], in data set [1] (80 mg/kg), the “Atax. (ataxia, alterations of coordination in locomotion), evaluated between 0 and 3” value is reported as 0.7; the “Pas. (passivity, sedation, prostation)” value amounted to 0. Moreover, in data set [2], the ED50 amounted to 10 mg/kg.

Take `O=C(O)c1cnn(CCCCN2CCN(C(c3ccccc3)c3ccccc3)CC2)c1` [Example 4, 1-[4-(4-Diphenylmethyl-1-piperazinyl)butyl]-4-carboxy pyrazole]: the “Atax. (ataxia, alterations of coordination in locomotion), evaluated between 0 and 3” value in data set [1] (80 mg/kg) was 1; in data set [1] (160 mg/kg), 1.6. For the same compound, the “Pas. (passivity, sedation, prostation)” value in data set [1] (80 mg/kg) was found to be 0.9; in data set [1] (160 mg/kg) it was 1.2. In addition, the ED50 in data set [2] was 0.62 mg/kg.

In the case of `Cc1cnn(CCCCN2CCN(C(c3ccccc3)c3ccccc3)CC2)c1` [Example 5, 1-4-[4-(-Diphenylmethyl-1-piperazinyl)butyl]-4-methyl pyrazole], in data set [1] (in words), the “sedative action / side effects on the central nervous system (in words)” value is recorded as “less sedative action”. Moreover, in data set [1] (80 mg/kg), the “Atax. (ataxia, alterations of coordination in locomotion), evaluated between 0 and 3” value is on record as 0.5. In data set [1] (80 mg/kg), the “Pas. (passivity, sedation, prostation)” value is 0.7. The “antihistaminic activity (in words)” value in data set [2] (compared with difenhidramine) is on record as “one of the most powerful of the products”. In data set [2], the ED50 was determined as 0.62 mg/kg. Moreover, the Potentiation sleep time in data set [3] (40 mg/kg p.o., N.S. (not significant)) came out at 15%; in data set [3] (80 mg/kg p.o., N.S. (not significant)), 21%; in data set [3] (160 mg/kg p.o., * significant vs control (p < 0.05)), 33%. Also, in data set [3], the “Potentiation of the sleep time induced by pentobarbital (in words)” value is “does not potentiate the sleep time induced by the pentobarbital except at the dose of 160 mg/kg”.

Turning to `c1ccc(C(c2ccccc2)N2CCN(CCCCn3ccnc3)CC2)cc1` [Example 6, 1-[4-(4-Diphenylmethyl-1-piperazinyl)butyl]imidazole], in data set [1] (80 mg/kg), the “Atax. (ataxia, alterations of coordination in locomotion), evaluated between 0 and 3” value was determined as 0.3; the “Pas. (passivity, sedation, prostation)” value came out at 1.3. For the same compound, the ED50 in data set [2] was found to be 2.5 mg/kg.

For `c1ccc(C(c2ccccc2)N2CCN(CCCCn3cncn3)CC2)cc1` [Example 7, 1-[4-(4-Diphenylmethyl-1-piperazinyl)butyl]-1,2,4,-triazole], in data set [1] (80 mg/kg), the “Effect: toxic” value is “Toxic”. Moreover, in data set [2], the ED50 came to 0.6 mg/kg.

In the case of `c1ccc(C(c2ccccc2)N2CCN(CCCCn3cccc3)CC2)cc1` [Example 8, 1-[4-(4-Diphenylmethyl-1-piperazinyl)butyl]pyrrole], in data set [2], the ED50 stood at 6.7 mg/kg.

(Values after patent US5166205A, “Derivatives of 1-diphenylmethyl piperazine and their use as antihistamines” (Laboratorios Del Dr. Esteve, S. A., priority 1990, dated 1992).)
